Experimental data: patent US20140056835A1, “COSMETIC COMPOSITION FOR SKIN WHITENING COMPRISING SMALL MOLECULE-PEPTIDE CONJUGATE” (AE KYUNG INDUSTRIAL CO., LTD., priority 2012, published 2014)

Key:
Tyrosinase = biological target: T1, Tyrosinase (Agaricus bisporus, UniProt C7FF04); test: Test for inhibitory effect on tyrosinase activity (dopachrome absorbance at 475 nm); type: biochemical, mushrooms; details: L-tyrosine substrate, 10 min at 37° C.; for inhibition at 50 µM / inhibition at 100 µM: read-out: Tyrosinase activity inhibition rate (%)
T1 construct: purchased Sigma; host or cells: natural source: mushrooms
T1 sequence (C7FF04 1-392 limits assumed): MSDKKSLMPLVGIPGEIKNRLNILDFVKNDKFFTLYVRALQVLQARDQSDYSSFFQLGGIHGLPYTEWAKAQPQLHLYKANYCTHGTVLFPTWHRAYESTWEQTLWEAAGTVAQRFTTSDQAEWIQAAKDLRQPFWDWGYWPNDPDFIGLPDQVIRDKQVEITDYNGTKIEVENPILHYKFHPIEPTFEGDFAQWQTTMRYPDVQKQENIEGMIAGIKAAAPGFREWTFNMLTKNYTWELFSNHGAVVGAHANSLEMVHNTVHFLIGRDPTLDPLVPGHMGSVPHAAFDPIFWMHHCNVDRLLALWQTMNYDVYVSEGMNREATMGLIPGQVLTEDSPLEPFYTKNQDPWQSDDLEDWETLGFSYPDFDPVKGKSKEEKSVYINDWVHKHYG

B16F1 melanoma cells = test: Test for inhibitory effect on melanin production; type: cell-based; details: sample 50 uM, incubated for 2 days; for inhibition at 50 µM: Mus musculus, B16-F1, 48 h, read-out: Melanin production inhibition rate (%)
Experimental: Inhibitory effect on melanin formation was measured using B16F1 melanoma cells. B16F1 melanoma cells were inoculated into a 6-well plate at a density of 3×10^5 (cells/well) with DMEM containing 10% FBS. […] After 2 days, the medium was removed and the cells were washed with PBS (phosphate buffered saline), treated with trypsin, and then retrieved. The retrieved cells were centrifuged and the supernatant was discarded. Intracellular melanin was obtained by treating the cells with 0.2 ml of 1N NaOH+10% DMSO solution. The collected cells were transferred to a 96-well plate and absorbance was measured at 490 nm. The amount of intracellular melanin was estimated using standard curve with synthetic melanin as a standard substance. The amount of protein was quantified via absorbance measurement using a protein assay reagent. For the amount of melanin produced, the amount of melanin for a given protein was estimated.

skin = details: in vivo

SMILES | inhibition at 50 µM (Tyrosinase; sample 50 uM) [%] | inhibition at 100 µM (Tyrosinase; sample 100 uM) [%] | inhibition at 50 µM (B16F1 melanoma cells) [%] | Tyrosinase activity inhibition rate (%) (Tyrosinase; sample 50 uM) | Tyrosinase activity inhibition rate (%) (Tyrosinase; sample 100 uM) | Melanin production inhibition rate (%) (B16F1 melanoma cells) | Degree of irritation (skin) | Skin irritation (skin)
OC[C@H]1O[C@@H](Oc2ccc(O)cc2)[C@H](O)[C@@H](O)[C@@H]1O [Arbutin] | 9.2 | 14.4 | 18 | – | – | – | – | –
CC(C)C[C@H](NC(=O)/C=C/c1ccc(O)c(O)c1)C(=O)NCC(N)=O [Caffeic acid-LG-NH2, Caffeic acid-Leu-Gly-NH2] | – | – | – | 24.2 | 26.8 | 41 | None | no irritation
O=C(O)/C=C/c1ccc(O)c(O)c1 [Caffeic acid] | – | 21.3 | 16 | – | – | – | – | –
CC(C)C[C@H](NC(=O)/C=C/c1ccc(O)cc1)C(=O)NCC(N)=O [Coumaric acid-LG-NH2, Coumaric acid-Leu-Gly-NH2] | – | – | – | 25.1 | 34.8 | 45.3 | None | no irritation
O=C(O)/C=C/c1ccc(O)cc1 [Coumaric acid] | 21.3 | 24.6 | 23 | – | – | – | – | –
